# Test results as given in patent publication US20190322676A1, “CERAMIDE GALACTOSYLTRANSFERASE INHIBITORS FOR THE TREATMENT OF DISEASE” (BioMarin Pharmaceutical Inc., priority 2016, published 2019).
# Structures can show the parent of a compound that is named as a salt.
# Target: T1, human CGT (ceramide galactosyltransferase), CHO/CGT lysate (Homo sapiens, UniProt Q16880)
# T1 construct: Full-length human CGT cDNA was cloned into the BamH1/Xho1 site of pcDNA3.1 (+); expressed in transfected cells; host or cells: Chinese hamster ovary (CHO) cells; lysate prepared with M-PER
# T1 sequence (Q16880 21-541): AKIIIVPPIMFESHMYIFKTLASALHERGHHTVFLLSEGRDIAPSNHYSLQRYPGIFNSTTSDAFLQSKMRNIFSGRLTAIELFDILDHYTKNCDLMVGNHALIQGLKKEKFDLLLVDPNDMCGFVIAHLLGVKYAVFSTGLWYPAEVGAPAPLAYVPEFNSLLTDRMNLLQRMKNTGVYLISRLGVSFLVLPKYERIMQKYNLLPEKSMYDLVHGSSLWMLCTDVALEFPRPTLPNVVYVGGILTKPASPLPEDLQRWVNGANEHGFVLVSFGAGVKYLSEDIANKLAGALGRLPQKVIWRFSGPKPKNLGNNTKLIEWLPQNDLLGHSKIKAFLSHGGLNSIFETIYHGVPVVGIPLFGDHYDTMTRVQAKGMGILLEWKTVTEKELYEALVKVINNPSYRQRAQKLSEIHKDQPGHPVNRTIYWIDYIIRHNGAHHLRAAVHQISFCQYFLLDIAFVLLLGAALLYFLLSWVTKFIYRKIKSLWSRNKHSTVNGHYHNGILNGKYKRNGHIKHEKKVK
# Assay: CGT enzyme assay, RapidFire/MS/MS readout (Table 1 ranges with one asterisk *)
# Format: biochemical
# Conditions: RapidFire method (range with one asterisk *)
# Summary of the method: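 IC50s come from variable-slope dose-response fits of internal-standard-normalized C6-NBD-dihydro-galactosylceramide, measured by RapidFire/MS/MS (ESI negative). Reactions: 1 h, 37 °C, human CGT-expressing CHO lysate (4 μg), 0.001–50 μM compound, 10 μM NBD-dihydro-ceramide, 17.5 μM UDP-galactose, 0.5% DMSO, pH 7.2; 0.01% Tween 80 added for ** values.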
row,SMILES,IC50 [µM]
1,"CCCCOc1cc(C(F)(F)[C@@H](NS(=O)(=O)c2ccc3cc(OC4CCCC4)ccc3c2)C(=O)N2CCC(N)CC2)ccc1Cl [Compound 126-2, (S)—N-(3-(4-aminopiperidin-1-yl)-1-(3-butoxy-4-chlorophenyl)-1,1-difluoro-3-oxopropan-2-yl)-6-(cyclopentyloxy)naphthalene-2-sulfonamide]",1 to 10
2,"NC1CCN(C(=O)[C@H](NS(=O)(=O)c2ccc(OCC3CCCCC3)cc2)C(F)(F)c2ccc(Cl)cc2)CC1 [Compound 30-2, (S)—N-(3-(4-aminopiperidin-1-yl)-1-(4-chlorophenyl)-1,1-difluoro-3-oxopropan-2-yl)-4-(cyclohexylmethoxy)benzenesulfonamide trifluoroacetate]",10 to 30
3,"NC1CC2CCC(C1)N2C(=O)[C@H](NS(=O)(=O)c1ccc(OCC2CCCCC2)cc1)C(F)(F)c1ccc2cc(Br)ccc2c1 (stereo partly drawn) [Compound 40-2, N-((2S)-3-(3-amino-8-azabicyclo[3.2.1]octan-8-yl)-1-(6-bromonaphthalen-2-yl)-1,1-difluoro-3-oxopropan-2-yl)-4-(cyclohexylmethoxy)benzenesulfonamide trifluoroacetate]",10 to 30
4,"COc1cc(C(F)(F)[C@H](NS(=O)(=O)c2ccc3cc(OC4CCCC4)ccc3c2)C(=O)N2C3CCC2CC(N)C3)ccc1Br (stereo partly drawn) [Compound 89-1, N-((2R)-3-(3-amino-8-azabicyclo[3.2.1]octan-8-yl)-1-(4-bromo-3-methoxyphenyl)-1,1-difluoro-3-oxopropan-2-yl)-6-(cyclopentyloxy)naphthalene-2-sulfonamide]",< 1
5,"CN([C@H](C(=O)N1C2CCC1CC(N)C2)C(F)(F)c1ccc(Br)cc1)S(=O)(=O)c1ccc2c(cnn2CC2CCCC2)c1 (stereo partly drawn) [Compound 75-1, N-((2R)-3-(3-amino-8-azabicyclo[3.2.1]octan-8-yl)-1-(4-bromophenyl)-1,1-difluoro-3-oxopropan-2-yl)-1-(cyclopentylmethyl)-N-methyl-1H-indazole-5-sulfonamide]",1 to 10
6,"NC1CC2CCC(C1)N2C(=O)[C@H](NS(=O)(=O)c1ccc2cc(OC3CCCC3)ccc2c1)C(F)(F)c1ccc(-c2ccc(F)cc2)cc1 (stereo partly drawn) [Compound 56-2, N-((2S)-3-(3-amino-8-azabicyclo[3.2.1]octan-8-yl)-1,1-difluoro-1-(4′-fluoro-[1,1′-biphenyl]-4-yl)-3-oxopropan-2-yl)-6-(cyclopentyloxy)naphthalene-2-sulfonamide trifluoroacetate]",1 to 10
7,"NC1CC2CCC(C1)N2C(=O)[C@H](NS(=O)(=O)c1ccc(OCC2CCCCC2)cc1)C(F)(F)c1cccc(Oc2ccccc2)c1 (stereo partly drawn) [Compound 113-2, N-((2S)-3-(3-amino-8-azabicyclo[3.2.1]octan-8-yl)-1,1-difluoro-3-oxo-1-(3-phenoxyphenyl)propan-2-yl)-4-(cyclohexylmethoxy) benzenesulfonamide trifluoroacetate]",1 to 10
8,"CN([C@@H](C(=O)N1C2CCC1CC(N)C2)C(F)(F)c1ccc(-c2ccccc2)cc1)S(=O)(=O)c1ccc2cc(OC3CCCC3)ccc2c1 (stereo partly drawn) [Compound 49-2, N-((2S)-1-([1,1′-biphenyl]-4-yl)-3-(3-amino-8-azabicyclo[3.2.1]octan-8-yl)-1,1-difluoro-3-oxopropan-2-yl)-6-(cyclopentyloxy)-N-methylnaphthalene-2-sulfonamide]",10 to 30
9,"CN([C@@H](C(=O)N1C2CCC1CC(N)C2)C(F)(F)c1ccc(Br)cc1)S(=O)(=O)c1ccc2cc(OC3CCCCC3)ccc2c1 (stereo partly drawn) [Compound 37-2, N-((2S)-3-(3-amino-8-azabicyclo[3.2.1]octan-8-yl)-1-(4-bromophenyl)-1,1-difluoro-3-oxopropan-2-yl)-6-(cyclohexyloxy)-N-methylnaphthalene-2-sulfonamide trifluoroacetate]",30 to 100
10,"NC1CC2CCC(C1)N2C(=O)[C@@H](NS(=O)(=O)c1ccc2c(cnn2CC2CCCC2)c1)C(F)(F)c1ccc(-c2ccc(Cl)cc2)cc1 (stereo partly drawn) [Compound 94-1, N-((2R)-3-(3-amino-8-azabicyclo[3.2.1]octan-8-yl)-1-(4′-chloro-[1,1′-biphenyl]-4-yl)-1,1-difluoro-3-oxopropan-2-yl)-1-(cyclopentylmethyl)-1H-indazole-5-sulfonamide]",1 to 10
11,"CCCCOc1cc(C(F)(F)[C@H](NS(=O)(=O)c2ccc(OCC3CCCCC3)cc2)C(=O)N2CCC(N)CC2)ccc1Cl [Compound 127-1, (R)—N-(3-(4-aminopiperidin-1-yl)-1-(3-butoxy-4-chlorophenyl)-1,1-difluoro-3-oxopropan-2-yl)-4-(cyclohexylmethoxy)benzenesulfonamide]",< 1
12,"NC1CC2CCC(C1)N2C(=O)[C@@H](NS(=O)(=O)c1ccc(OCC2CCCCC2)cc1)C(F)(F)c1cccc(Oc2ccccc2)c1 (stereo partly drawn) [Compound 113-1, N-((2R)-3-(3-amino-8-azabicyclo[3.2.1]octan-8-yl)-1,1-difluoro-3-oxo-1-(3-phenoxyphenyl)propan-2-yl)-4-(cyclohexylmethoxy)benzenesulfonamide trifluoroacetate]",< 1
13,"CCOc1ccc(C(F)(F)[C@H](C(=O)N2C3CCC2CC(N)C3)N(C)S(=O)(=O)c2ccc3cc(OC4CCCC4)ccc3c2)cc1 (stereo partly drawn) [Compound 114-2, N-((2S)-3-(3-amino-8-azabicyclo[3.2.1]octan-8-yl)-1-(4-ethoxyphenyl)-1,1-difluoro-3-oxopropan-2-yl)-6-(cyclopentyloxy)-N-methylnaphthalene-2-sulfonamide]",10 to 30
14,"NC1CC2CCC(C1)N2C(=O)[C@@H](NS(=O)(=O)c1ccc(OCC2CCCCC2)cc1)C(F)(F)c1ccc(-c2ccccc2)cc1 (stereo partly drawn) [Compound 35-1, N-((2R)-1-([1,1′-biphenyl]-4-yl)-3-(3-amino-8-azabicyclo[3.2.1]octan-8-yl)-1,1-difluoro-3-oxopropan-2-yl)-4-(cyclohexylmethoxy)benzenesulfonamide trifluoroacetate]",< 1
15,"NC1CC2CCC(C1)N2C(=O)[C@H](NS(=O)(=O)c1ccc2cc(OC3CCCC3)ccc2c1)C(F)(F)c1ccc(Oc2ccccc2)cc1 (stereo partly drawn) [Compound 86-2, N-((2S)-3-(3-amino-8-azabicyclo[3.2.1]octan-8-yl)-1,1-difluoro-3-oxo-1-(4-phenoxyphenyl)propan-2-yl)-6-(cyclopentyloxy)naphthalene-2-sulfonamide trifluoroacetate]",1 to 10
16,"N[C@H]1CCCN(C(=O)[C@@H](NS(=O)(=O)c2ccc3cc(OC4CCCC4)ccc3c2)C(F)(F)c2ccc(Br)cc2)C1 [Compound 132-1, N—((R)-3-((S)-3-aminopiperidin-1-yl)-1-(4-bromophenyl)-1,1-difluoro-3-oxopropan-2-yl)-6-(cyclopentyloxy)naphthalene-2-sulfonamide trifluoroacetate]",1 to 10
17,"CCCCOc1cc(C(F)(F)[C@@H](NS(=O)(=O)c2ccc3cc(OC4CCCC4)ccc3c2)C(=O)N2C3CCC2CC(N)C3)ccc1Cl (stereo partly drawn) [Compound 118-2, N-((2S)-3-(3-amino-8-azabicyclo[3.2.1]octan-8-yl)-1-(3-butoxy-4-chlorophenyl)-1,1-difluoro-3-oxopropan-2-yl)-6-(cyclopentyloxy) naphthalene-2-sulfonamide]",1 to 10
18,"NC1CCN(C(=O)[C@H](NS(=O)(=O)c2ccc3c(cnn3CC3CCCC3)c2)C(F)(F)c2ccc(-c3ccc(Cl)cc3)cc2)CC1 [Compound 95-2, (S)—N-(3-(4-aminopiperidin-1-yl)-1-(4′-chloro-[1,1′-biphenyl]-4-yl)-1,1-difluoro-3-oxopropan-2-yl)-1-(cyclopentylmethyl)-1H-indazole-5-sulfonamide]",10 to 30
